Source: paper PMC8129498, “Synthesis, Antitumor and Antiviral In Vitro Activities of New Benzotriazole-Dicarboxamide Derivatives” (Frontiers in Chemistry, 2021)
Like-named read-outs stand apart in the source and are kept apart here.

Experiments:
SK-MES 1 cells = assay: Apoptosis assay (Annexin V/PI, flow cytometry); assay type: cell-based, human; conditions: 96 h
Description: 3b compound was selected as lead and employed in our assay. Human lung cancer cells (SK-MES 1) were seeded at the density of 8 × 10^5 cells/ml in 6-well plates (Corning, United States) with a complete medium (described in cell culture section). After overnight incubations, the cells were treated with or without different concentrations of 3b for 96 h. Cells were then labeled with Annexin V and PI as previously described ([Ibba et al., 2021]). Stained cells were then analyzed by flow cytometry, measuring the fluorescence emission at 530 and 620 nm using 488 nm excitation laser (MoFloAstrios EQ, Beckman Coulter). Cell apoptosis was analyzed using Software Summit Version 6.3.1.1, Beckman Coulter.

[1] = Antiproliferative assay (MTT), CRL 7065 control fibroblasts; assay type: cell-based, human
Description: (§1) Cell lines were purchased from American Type Culture Collection (ATCC). The absence of mycoplasma contamination was checked periodically by the Hoechst staining method. Exponentially growing leukemia and lymphoma cells were seeded at 1 × 10^5 cells/ml in 96 well plates in RPMI-1640 medium, supplemented with 10% fetal bovine serum, 100 units/ml penicillin G, and 100 μg/ml streptomycin, and incubated at 37°C in a humidified, 5% CO2 atmosphere in the absence or presence of serial dilutions of test compounds. Cell viability was determined after 96 h at 37°C by the 3-(4,5-dimethylthiazol-2-yl)-2,5-diphenyl-tetrazolium bromide (MTT) method. Activity against solid-tumor derived cells was evaluated in exponentially growing cultures seeded at 5 × 10^4 cells/ml and allowed to adhere for 16 h to culture plates before the addition of the drugs. Cell viability was determined by the MTT method 4 days later. Vincristine and doxorubicin were used as reference drugs.
(§2) The extent of cell growth/viability and viral multiplication, at each drug concentration tested, were expressed as percentage of untreated controls. Concentrations resulting in 50% inhibition (CC50 or EC50) were determined by linear regression analysis.

[2] = test system: prostate cancer cell lines; assay: NCI60 Human Tumor Cell Lines Screen, prostate cancer lines; assay type: cell-based; conditions: the two prostate cancer cell lines
Description: (§3) The in vitro anti-cancer screening was performed through the NCI60 Human Tumor Cell Lines Screen, provided by the Developmental Therapeutics Program of the National Cancer Institute (NCI, Bethesda, United States). A single dose of 10 µM of each compound is tested in the whole NCI60 cell panel. More details about the NCI60 screen methods are reported on the NCI website (https://dtp.cancer.gov ).

SK-MES1 = assay: Antiproliferative assay (MTT), SK-MES1; assay type: cell-based; conditions: Homo sapiens, SK-MES-1, 96 h, read-out: CC50 SK-MES1
Description: as §1, §2

DU145 = assay: Antiproliferative assay (MTT), DU145; assay type: cell-based; conditions: Homo sapiens, DU-145, 96 h, read-out: CC50 DU145
Description: as §1, §2

CCRF-SB = assay: Antiproliferative assay (MTT), CCRF-SB; assay type: cell-based; conditions: Homo sapiens, 96 h, read-out: CC50 CCRF-SB
Description: as §1, §2

CCRF-CEM = assay: Antiproliferative assay (MTT), CCRF-CEM; assay type: cell-based, human; conditions: for CC50: Homo sapiens, CCRF-CEM, 96 h, read-out: CC50 CCRF-CEM
Description: as §1, §2

[3] = test system: panel of 60 human tumor cell lines; assay: NCI60 Human Tumor Cell Lines Screen, whole panel; assay type: cell-based; conditions: 10 μM, of the 60 cell lines
Description: as §3

SK-MEL28 = assay: Antiproliferative assay (MTT), SK-MEL28; assay type: cell-based; conditions: Homo sapiens, SK-MEL-28, 96 h, read-out: CC50 SK-MEL28
Description: as §1, §2

HeLa = assay: Antiproliferative assay (MTT), HeLa; assay type: cell-based; conditions: Homo sapiens, 96 h, read-out: CC50 HeLa
Description: as §1, §2

OVCAR-4 = assay: NCI60 Human Tumor Cell Lines Screen, OVCAR-4; assay type: cell-based; conditions: OVCAR-4 ovarian cancer cell line, read-out: Percentage of Growth Inhibition (PGI)
Description: as §3

breast cancer cell lines = assay: NCI60 Human Tumor Cell Lines Screen, breast cancer lines; assay type: cell-based; conditions: most of the breast cancer cell lines, read-out: Percentage of Growth Inhibition (PGI)
Description: as §3

WIL-2NS = assay: Antiproliferative assay (MTT), WIL-2NS; assay type: cell-based; conditions: Homo sapiens, WIL2-NS, 96 h, read-out: CC50 WIL-2NS
Description: as §1, §2

[4] = test system: Coxsackievirus B5 (CV-B5); assay: Plaque reduction assay, CV-B5 in Vero-76 monolayers; assay type: cell-based; conditions: Enterovirus B
Poliovirus type-1 (Sb-1) = assay: microbe, parasite or virus in culture; assay type: cell-based; conditions: Enterovirus C, Vero 76, read-out: EC50, plaque reduction Sb-1
[5] = Cytotoxicity in Vero-76 cell-line (MTT); assay type: cell-based; conditions: monkey (Cercopithecus aethiops), Vero-76 cells (mock-infected), mock-infected Vero-76 cells
Description: Vero-76 cells were seeded in 96-well plates at an initial density of 5 × 10^5 cells/ml, in Dulbecco’s Modified Eagle Medium (D-MEM) with L-glutamine and 25 mg/L kanamycin, supplemented with 10% FBS. Cell cultures were then incubated at 37°C in a humidified and 5% CO2 atmosphere, in the absence or presence of serial dilutions of test compounds. The test medium used for the cytotoxic assay as well as for antiviral assay contained 1% of the appropriate serum. Cell viability was determined after 48–96 h at 37°C by MTT method for Vero-76 ([Pauwels et al., 1988]).
as §2

[6] = MTT, human foreskin fibroblasts, non-tumor control, read-out: CC50 CRL 7065

| SMILES | CC50 at 96 h [1, 6] | CC50 (SK-MES1) | CC50 (DU145) | CC50 (CCRF-SB) | CC50 (CCRF-CEM) | CC50 (SK-MEL28) | CC50 (HeLa) | CC50 (WIL-2NS) | melting point | EC50 [4] | EC50 (Poliovirus type-1 (Sb-1)) | CC50 [5] | also measured |
| --- | --- | --- | --- | --- | --- | --- | --- | --- | --- | --- | --- | --- | --- |
| O=C(CCCC(=O)Nc1ccc(-n2nnc3cc(Cl)c(Cl)cc32)cc1)Nc1ccc(-n2nnc3cc(Cl)c(Cl)cc32)cc1 [Compound 3b, N ^1,N ^5-Bis(4-(5,6-Dichloro-1H-Benzo[d][1,2,3]Triazol-1-yl)phenyl)glutaramide] | 0.75 ± 0.05 µM | 6.8 ± 3.5 µM | 5.1 µM | 0.35 ± 0.07 µM | 0.5 ± 0.1 µM | 6.2 ± 1.3 µM | 7.1 ± 2.7 µM | > 100 µM | – | – | – | – | % Early apoptotic cells (SK-MES 1 cells; 7μM): 21.4 ± 12.32%; % Late apoptotic cells (SK-MES 1 cells; 7μM): 10.5 ± 0.67%; % Live cells (SK-MES 1 cells; 7μM): 63.8 ± 1.1%; % Necrotic cells (SK-MES 1 cells; 7μM): 4.3 ± 0.74%; % Early apoptotic cells (SK-MES 1 cells; 20μM): 28.5 ± 4.63%; % Late apoptotic cells (SK-MES 1 cells; 20μM): 11.1 ± 2.08%; % Live cells (SK-MES 1 cells; 20μM): 54.8 ±4.9%; % Necrotic cells (SK-MES 1 cells; 20μM): 5.6 ±1.74%; apoptotic cells (SK-MES 1 cells; 7 µm): 32%; apoptotic cells (SK-MES 1 cells; 20 µm): 40%; Percentage of Growth Inhibition (PGI) ([2]; 10 μM): 66%; inhibition at 10 µM ([2]; Homo sapiens, read-out: Percentage of Growth Inhibition (PGI)): 80%; number of cell lines with PGI higher than 50% [3]: 29; inhibition at 10 µM (OVCAR-4): 106%; inhibition at 10 µM (breast cancer cell lines): 48 to 81% |
| O=C(/C=C/C(=O)Nc1ccc(-n2nnc3cc(Cl)c(Cl)cc32)cc1)Nc1ccc(-n2nnc3cc(Cl)c(Cl)cc32)cc1 [Compound 3d, N ^1 ,N ^4-Bis(4-(5,6-Dichloro-1H-Benzo[d][1,2,3]Triazol-1-yl)phenyl)fumaramide] | 0.37 ± 0.04 µM | > 100 µM | > 100 µM | 7.9 ± 0.9 µM | 0.07 ± 0.02 µM | > 100 µM | > 100 µM | > 100 µM | > 300 °C | – | – | – | selectivity index (SI) (CCRF-CEM; ratio of CC50 of non-tumor cells (CRL 7065) and CC50 of tumor cells (CCRF-CEM)): 5.3 |
| O=C(O)/C=C/C(=O)Nc1ccc(-n2nnc3cc(Cl)c(Cl)cc32)cc1 [Compound 4d, (E)-4-((4-(5,6-Dichloro-1H-Benzo[d][1,2,3]Triazol-1-yl)phenyl)amino)-4-oxobut-2-enoic Acid] | 1.7 ± 0.1 µM | > 100 µM | > 100 µM | 0.51 ± 0.13 µM | 3.3 ± 1.7 µM | > 100 µM | > 100 µM | 64 ± 10 µM | 231 to 233 °C | 10 µM | > 100 µM | > 100 µM | – |
| O=C(CCCC(=O)Nc1ccc(Cn2nnc3cc(Cl)c(Cl)cc32)cc1)Nc1ccc(Cn2nnc3cc(Cl)c(Cl)cc32)cc1 [Compound 9b, N ^1,N ^5-Bis(4-((5,6-Dichloro-1H-Benzo[d][1,2,3]Triazol-1-yl)methyl)phenyl)Glutaramide] | 6.7 ± 2.4 µM | 9.9 ± 3.1 µM | 5.2 ± 0.4 µM | 8.5 ± 3.2 µM | 5.5 ± 1.8 µM | 2.6 ± 0.7 µM | 5.4 ± 0.7 µM | 23 ± 7 µM | 204 to 206 °C | 52 µM | > 75 µM | 75 µM | – |
| COc1cccc2c1C(=O)c1c(O)c3c(c(O)c1C2=O)C[C@@](O)(C(=O)CO)C[C@@H]3O[C@H]1C[C@H](N)[C@H](O)[C@H](C)O1 [Doxorubicin, reference compound] | – | 0.65 ± 0.05 µM | 0.3 ± 0.1 µM | 0.03 ± 0.02 µM | 0.02 ± 0.01 µM | 1.1 ± 0.2 µM | 1.8 ± 0.2 µM | 0.06 ± 0.01 µM | – | – | – | – | CC50 at 96 h ([1]; human): 2 ± 0.2 µM |
| CC[C@]1(O)C[C@H]2CN(CCc3c([nH]c4ccccc34)[C@@](C(=O)OC)(c3cc4c(cc3OC)N(C=O)[C@H]3[C@@](O)(C(=O)OC)[C@H](OC(C)=O)[C@]5(CC)C=CCN6CC[C@]43[C@@H]65)C2)C1 [Vincristine, reference compound] | > 4 µM | 0.01 ± 0.02 µM | 0.02 ± 0.01 µM | 0.003 ± 0.001 µM | 0.003 ± 0.001 µM | > 4 µM | 0.05 ± 0.02 µM | 0.006 ± 0.002 µM | – | – | – | – | – |
